Read-outs that look alike come from different tables or passages of the source.
What was measured:
[1] = system: man; details: cited from earlier work
[2] = system: Mouse; details: less than 1 ppm, cited from earlier work
[3] = system: Guinea Pig; details: less than 1 ppm, duration 7 days; cited from earlier work
[4] = system: Rabbit; details: less than 1 ppm, duration 24 days; cited from earlier work
[5] = system: rats; test: Fourteen-day toxicity study using the delivery devices, rats; type: in vivo; details: doses well in excess of 80 ppm NO
[6] = system: dogs; test: Fourteen-day toxicity study using the delivery devices, dogs; type: in vivo; details: doses well in excess of 80 ppm NO
[7] = system: patients with cardiogenic shock due to RVMI; details: cited from earlier work
[8] = system: patients with pulmonary tuberculosis; details: 80 ppm; cited from earlier work
[9] = system: patients with pulmonary fibrosis; details: inhaled; cited from earlier work
[10] = system: child with traumatic brain injury; details: NO therapy; cited from earlier work
[11] = system: patents suffering massive pulmonary embolism; details: inhaled; cited from earlier work
[12] = system: mice models of malaria; details: mouse, in vivo; cited from earlier work
[13] = system: newborns with hypoxic respiratory failure; details: inhaled; cited from earlier work
[14] = system: patients with acute lung injury/acute respiratory distress syndrome; details: conventional iNO; cited from earlier work
[15] = system: COPD patients; details: NO with oxygen, 3 month period, compared to oxygen alone; cited from earlier work

[O]N=O [NO2, nitrogen dioxide]
OUTCOME ([1]; NO2 dose 0.1 ppm, exposure 60 min, asthmatics): 13/16 asthmatics increase in reaction to
OUTCOME ([1]; NO2 dose 0.7-2.0 ppm, exposure 10 min): Increase in inspiratory and expiratory flow
OUTCOME ([1]; NO2 dose 1.6-2.0 ppm, exposure 15 min): Significant increase in total airway resistance
OUTCOME(S) ([2]; duration 1 day): Increased ascorbic acid levels in the liver
OUTCOME(S) ([2]; duration 90 days): Depression in serum neutralizing
OUTCOME(S) [3]: Increased protein content of lung lavage fluid
OUTCOME(S) [4]: Structural changes in lung collagen fibers

[N]=O [NO, nitric oxide]
Fourteen-day toxicity study outcome [5]: successfully been completed
Fourteen-day toxicity study outcome [6]: successfully been completed
decreased mPAP ([7]; NO 80 ppm acutely): 12%
decreased mRAP ([7]; NO 80 ppm acutely): 12%
improved cardiac index ([7]; NO 80 ppm acutely): 24%
decrease shunt flow ([7]; inhaled NO): 56%
systemic oxygen saturation ([7]; inhaled NO): markedly improved
safety of delivery [8]: safely delivered
arterial oxygen tension [9]: without a decrease
pulmonary vascular resistance [9]: decreased
ventilation perfusion matching [9]: maintained
adverse cerebral effects [10]: No adverse cerebral effects
systemic blood pressures, heart rate and gas exchange [11]: improvements
neurological damage [12]: protection
survival [12]: increased chance of survival
arterial oxygen levels [13]: safely improves
need for Extracorporeal Membrane Oxygenation (ECMO) [13]: decreases
outcomes (increased PaO2, survival) [14]: positive outcomes
oxygenation [15]: did not result in a decrease
